# According to patent US7772237B2, “Thio-substituted tricyclic and bicyclic aromatic methanesulfinyl derivatives” (Cephalon France, priority 2004, dated 2010):
# System: male Wistar rats
# Assay: Evaluation of wake promoting activity in rats (EEG/EMG sleep/wake scoring)
# Assay type: in vivo, rat
# Settings: i.p., 100 mg/kg, p<0.05 vs control groups
# Experimental: Biological Data Methodology: Evaluation of Wake Promoting Activity in Rats
# The methodology utilized for evaluating wake promoting activity of test compounds is based on that described by Edgar and Seidel, Journal of Pharmacology and Experimental Therapeutics, 283:757-769, 1997, and incorporated herein in its entirety by reference.
# Animal Surgery. Adult, male Wistar rats (275-320 g from Charles River Laboratories, Wilmington, Mass.) were anesthetized (Nembutal, 45 mg/kg, ip.) and surgically prepared with implants for recording of chronic EEG (encephalographic) and EMG (electromyographic) recording. The EEG implants were made from commercially available components (Plastics One, Roanoke, Va.). EEG signals were recorded from stainless steel screw electrodes: 2 frontal (+3.0 mm AP from bregma, ±2.0 mm ML), and 2 occipital (−4.0 mm AP from bregma, ±2.0 mm ML). Two Teflon-coated stainless steel wires were positioned under the nuchal trapezoid muscles for EMG recording. […]
# Data acquisition. […] On the day of dosing, data was recorded for 6 to 10 hours beginning at 11 AM.
# (i) Drug administration and study design. Compounds were evaluated on groups of from 4 to 8 rats carried out over one or two separate test sessions. […]
# Sleep/wake scoring. Sleep and wake activity were determined manually using ICELUS software. […]
compound,measurement,value
"CC(C)(C)OC(=O)N1CCN(C(=O)CSCc2ccc3oc4ccc(F)cc4c3c2)CC1 [Example 26, 4-[2-(8-fluorodibenzofuran-2-yl-methylsulfanyl)acetyl]-piperazine-1-carboxylic acid tert-butyl ester]",wakefulness compared to vehicle-treated animals,significantly greated wakefulness
